Source: ChEMBL document CHEMBL6087461, “Cell-Permeable Peptide Inhibitors of the p53-hDM2 Interaction via Foldamer Helix Mimicry and Bis-Thioether Stapling” (J Med Chem, 2025)
Active and inactive are the calls of the source. The calls are words filed in the database; no cut-off is given here. Starred links: 1 amine or outer side, 2 acyl side, 3 side chain; linkers in the order of their positions; H or OH if unused. Positions of bridges follow the written chain, without caps; N, C: chain ends. Residues, ends and D or L forms follow the SMILES beside them. *: point of attachment. X2 = CC(C)[C@@H](CNC(N)=O)NC(=O)NC[C@H](C)NC(=O)NC[C@H](CSCC(=O)NCCNC(=O)C[*:1])N[*:2]; X1 = CC(C)[C@@H](CNC(N)=O)NC(=O)NC[C@H](C)NC(=O)NC[C@H](CSCCCCCC[*:1])N[*:2]; NH(CH2CH2O)2(CH2)6Cl = ClCCCCCCOCCOCCN*; Suc = O=C(CCC(=O)[*:2])[*:1]

Columns and labels:
HCT-116 [1] = assay: Effect on increase in p21 RNA level in human HCT-116 cells at 10 uM measured after 6 hrs by RT-qPCR analysis; type: functional, cell-based
HCT-116 [2] = assay: Effect on increase in […] RNA level in human HCT-116 cells at 10 uM measured after 6 hrs by RT-qPCR analysis; type: functional, cell-based
HCT-116 [3] = assay: Cytotoxicity against human HCT-116 cells assessed as cell viability at 0.1 to 40 uM measured after 2 hrs incubation by LDH release assay; type: functional, cell-based; conditions: dose 0.1-40 µM
HCT-116 [4] = assay: Induction of P21 RNA level in human HCT-116 cells expressing wild type p53 measured after 6 hrs by RT-qPCR analysis; type: functional, cell-based; conditions: dose 0.1-10 µM
[5] = PROTAC activity at human DM2/p53 extracted from Escherichia coli interaction by measuring inhibition of interaction by time-resolved fluorescence energy transfer (TRFRET) detection method
HCT-116 [6] = assay: Induction of p53 level in human HCT-116 cells expressing wild type p53 measured after 6 hrs by Western blotting analysis; type: functional, cell-based; conditions: dose 0.1-40 µM
[7] = target: Tumour suppressor protein p53/Mdm4 (Homo sapiens, UniProt O15151); assay: PROTAC activity at human DMX/p53 extracted from Escherichia coli interaction by measuring inhibition of interaction by time-resolved fluorescence energy transfer (TRFRET) detection method; type: protein assay
HCT-116 [8] = assay: Induction of hDM2 RNA level in human HCT-116 cells expressing wild type p53 measured after 6 hrs by RT-qPCR analysis; type: functional, cell-based; conditions: dose 0.1-10 µM
[9] = target: Tumour suppressor protein p53/Mdm4 (Homo sapiens) (UniProt P04637+O15151); assay: PROTAC activity at human DMX/p53 extracted from Escherichia coli interaction at 100 nM by measuring inhibition of interaction by time-resolved fluorescence energy transfer (TRFRET) detection method relative to control; type: protein assay
SW480 [10] = assay: Cytotoxicity against human SW480 cells expressing […] assessed as cell viability at 0.1 to 40 uM measured after 72 hrs incubation by MTS cell viability assay; type: functional, cell-based; conditions: dose 0.1-40 µM
[11] = target: Tumour suppressor p53/oncoprotein Mdm2 (Homo sapiens) (UniProt P04637+Q00987); assay: PROTAC activity at human MDM2/p53 extracted from Escherichia coli interaction by measuring inhibition of interaction at 100 nM by time-resolved fluorescence energy transfer (TRFRET) detection method relative to control; type: protein assay
SW480 [12] = assay: Cytotoxicity against human SW480 cells expressing p53 mutant and overexpressing human DM2 assessed as cell viability measured after 72 hrs incubation by MTS cell viability assay; type: functional, cell-based
HCT-116 [13] = assay: Cytotoxicity against human HCT116 cells expressing wild type p53 and overexpressing human DM2 assessed as cell viability measured after 72 hrs incubation by MTS cell viability assay; type: functional, cell-based
MCF7 = assay: Cytotoxicity against human MCF7 cells expressing wild type p53 and overexpressing human DMX assessed as cell viability measured after 72 hrs incubation by MTS cell viability assay; type: functional, cell-based
SW480 [14] = assay: Cytotoxicity against human SW480 cells expressing lower level of human DM2 assessed as cell viability measured after 72 hrs incubation by MTS cell viability assay; type: functional, cell-based
HCT-116 [15] = assay: Effect on increase in wild type p53 level in human HCT-116 cells at 10 uM measured after 6 hrs by Western blot analysis; type: functional, cell-based
HCT-116 [16] = assay: Cytotoxicity against human HCT-116 cells assessed as cell viability at 100 uM by MTS cell viability assay; type: functional, cell-based
[17] = Permeability in human HeLa cells transfected with Halo-GFP-Mito assessed as accumulation in cytosol measured after 4 hrs incubation by chloroalkane penetration assay; type: ADME, subcellular

Sequence of Tumour suppressor protein p53/Mdm4 (Homo sapiens) (O15151 whole entry, looked up): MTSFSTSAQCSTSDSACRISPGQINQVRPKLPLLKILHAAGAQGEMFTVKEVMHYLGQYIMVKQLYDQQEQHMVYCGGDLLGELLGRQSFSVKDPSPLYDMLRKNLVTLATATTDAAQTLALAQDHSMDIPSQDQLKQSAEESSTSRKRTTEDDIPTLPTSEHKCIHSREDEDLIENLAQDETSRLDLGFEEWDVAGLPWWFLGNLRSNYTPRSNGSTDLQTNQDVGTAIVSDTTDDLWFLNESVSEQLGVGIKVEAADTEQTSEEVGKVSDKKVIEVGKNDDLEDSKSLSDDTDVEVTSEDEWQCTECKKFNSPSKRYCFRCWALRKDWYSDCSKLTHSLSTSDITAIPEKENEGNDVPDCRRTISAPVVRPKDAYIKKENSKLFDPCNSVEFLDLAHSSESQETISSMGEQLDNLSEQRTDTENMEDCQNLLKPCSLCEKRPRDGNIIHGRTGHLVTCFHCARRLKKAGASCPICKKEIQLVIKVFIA
Sequence of Tumour suppressor protein p53/Mdm4 (Homo sapiens) (P04637 whole entry, looked up): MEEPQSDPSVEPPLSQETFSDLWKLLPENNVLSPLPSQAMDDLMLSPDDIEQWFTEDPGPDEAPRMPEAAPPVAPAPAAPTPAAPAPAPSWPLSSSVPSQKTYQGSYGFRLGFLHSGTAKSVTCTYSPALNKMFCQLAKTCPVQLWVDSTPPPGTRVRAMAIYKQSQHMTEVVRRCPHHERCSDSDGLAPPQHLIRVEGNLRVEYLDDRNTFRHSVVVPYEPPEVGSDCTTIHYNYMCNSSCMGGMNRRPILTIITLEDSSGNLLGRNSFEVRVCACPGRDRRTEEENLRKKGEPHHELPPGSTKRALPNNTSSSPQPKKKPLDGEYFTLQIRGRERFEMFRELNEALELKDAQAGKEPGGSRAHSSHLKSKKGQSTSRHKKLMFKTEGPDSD
Sequence of Tumour suppressor p53/oncoprotein Mdm2 (Homo sapiens) (P04637 whole entry, looked up): as above
Sequence of Tumour suppressor p53/oncoprotein Mdm2 (Homo sapiens) (Q00987 whole entry, looked up): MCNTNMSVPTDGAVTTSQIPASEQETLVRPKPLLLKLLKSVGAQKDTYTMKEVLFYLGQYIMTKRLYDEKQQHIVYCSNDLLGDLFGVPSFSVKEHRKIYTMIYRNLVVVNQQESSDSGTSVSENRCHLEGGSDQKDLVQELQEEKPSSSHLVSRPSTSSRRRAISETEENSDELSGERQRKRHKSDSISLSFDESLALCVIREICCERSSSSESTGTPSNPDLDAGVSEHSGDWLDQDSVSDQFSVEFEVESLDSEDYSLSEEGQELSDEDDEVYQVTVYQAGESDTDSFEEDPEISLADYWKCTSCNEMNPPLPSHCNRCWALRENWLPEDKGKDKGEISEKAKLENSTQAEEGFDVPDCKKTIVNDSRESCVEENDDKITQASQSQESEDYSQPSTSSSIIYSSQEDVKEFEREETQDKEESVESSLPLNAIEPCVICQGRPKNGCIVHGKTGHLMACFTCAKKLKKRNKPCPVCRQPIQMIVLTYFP
Sequence of Tumour suppressor protein p53/Mdm4 (P04637 whole entry): as the sequence (P04637 whole entry, looked up) above
Sequence of Tumour suppressor protein p53/Mdm4 (O15151 whole entry): as the sequence (O15151 whole entry, looked up) above

COc1ccc(C2=N[C@@H](c3ccc(Cl)cc3)[C@@H](c3ccc(Cl)cc3)N2C(=O)N2CCNC(=O)C2)c(OC(C)C)c1
Activity (HCT-116 [1]): Active | Activity (HCT-116 [2]): Active

CC(=O)N[C@@H](CCCCN)C(=O)N[C@H](C(=O)N[C@@H](Cc1ccccc1)C(=O)N[C@H]1CSCCCCCCSC[C@@H](CNC(=O)N[C@@H](C)CNC(=O)N[C@H](CNC(N)=O)C(C)C)NC(=O)[C@H](Cc2c[nH]c3ccccc23)NC(=O)[C@H](Cc2ccc(O)cc2)NC(=O)[C@H](CCC(=O)O)NC1=O)[C@@H](C)O (Ac-KTFCEYW; linker 4-C via X1)
Activity (HCT-116 [3]): Not active; Indicating Absence Of Direct Effect On Cell Membranes | Activity (HCT-116 [4]): Dose-dependent-effect | IC50 [5]: 9.24 nM | Activity (HCT-116 [6]): Dose-dependent-effect; Similar To Nutlin-3A | IC50 [7]: 73300 nM | Activity (HCT-116 [8]): Dose-dependent-effect

CC(=O)N[C@@H](CC(C)C)C(=O)N[C@H](C(=O)N[C@@H](Cc1ccccc1)C(=O)N[C@H]1CSCCCCCCSC[C@@H](CNC(=O)N[C@@H](C)CNC(=O)N[C@H](CNC(N)=O)C(C)C)NC(=O)[C@H](Cc2c[nH]c3ccccc23)NC(=O)[C@H](Cc2ccc(O)cc2)NC(=O)[C@H](CCC(=O)O)NC1=O)[C@@H](C)O (Ac-LTFCEYW; linker 4-C via X1)
Activity (HCT-116 [3]): Not active; Indicating Absence Of Direct Effect On Cell Membranes | Activity (HCT-116 [4]): Dose-dependent-effect | IC50 [5]: 15.8 nM | Activity (HCT-116 [6]): Dose-dependent-effect; Similar To Nutlin-3A And Able To Increase As Low As 0.5 Um | IC50 [7]: 262000 nM | Activity (HCT-116 [8]): Dose-dependent-effect

CC(C)[C@@H](CNC(N)=O)NC(=O)NC[C@H](C)NC(=O)NC[C@@H]1CSCCCCCCSC[C@H](NC(=O)[C@H](Cc2ccccc2)NC(=O)[C@H](CO)NC(=O)[C@H](CCCCN)NC(=O)[C@@H](N)CCCCN)C(=O)N[C@@H](CCC(=O)O)C(=O)N[C@@H](Cc2ccc(O)cc2)C(=O)N[C@@H](Cc2c[nH]c3ccccc23)C(=O)N1 (H-KKSFCEYW; linker 5-C via X1)
IC50 [5]: 8.95 nM | IC50 [7]: 45400 nM | Activity [9]: inactive | Activity (SW480 [10]): Active | inhibition [11]: inactive

CC(C)[C@@H](CNC(N)=O)NC(=O)NC[C@H](C)NC(=O)NC[C@@H]1CSCCCCCCSC[C@H](NC(=O)[C@H](Cc2ccccc2)NC(=O)[C@H](CO)NC(=O)[C@@H](NC(=O)[C@H](CCCCN)NC(=O)[C@@H](N)CCCCN)[C@@H](C)O)C(=O)N[C@@H](CCC(=O)O)C(=O)N[C@@H](Cc2ccc(O)cc2)C(=O)N[C@@H](Cc2c[nH]c3ccccc23)C(=O)N1 (H-KKTSFCEYW; linker 6-C via X1)
IC50 [5]: 10.2 nM | IC50 [7]: 62700 nM | Activity [9]: inactive | Activity (SW480 [10]): Active | inhibition [11]: inactive

CC(C)[C@@H](CNC(N)=O)NC(=O)NC[C@H](C)NC(=O)NC[C@@H]1CSCCCCCCSC[C@H](NC(=O)[C@H](Cc2ccccc2)NC(=O)[C@H](CO)NC(=O)[C@H](CCCCN)NC(=O)[C@H](CCCNC(=N)N)NC(=O)[C@H](CCCNC(=N)N)NC(=O)[C@@H](N)CCCNC(=N)N)C(=O)N[C@@H](CCC(=O)O)C(=O)N[C@@H](Cc2ccc(O)cc2)C(=O)N[C@@H](Cc2c[nH]c3ccccc23)C(=O)N1 (H-RRRKSFCEYW; linker 7-C via X1)
Activity (HCT-116 [1]): inactive | IC50 [5]: 4.6 nM | Activity (SW480 [12]): Active | Activity (HCT-116 [2]): inactive | IC50 [7]: 22000 nM | IC50 (HCT-116 [13]; HCT-116, 72 h): 3860 nM | IC50 (MCF7; MCF7, 72 h): 3980 nM | Activity (SW480 [14]): Active | Activity (HCT-116 [15]): inactive

CC(C)[C@@H](CNC(N)=O)NC(=O)NC[C@H](C)NC(=O)NC[C@@H]1CSCC(=O)NCCNC(=O)CSC[C@H](NC(=O)[C@H](Cc2ccccc2)NC(=O)[C@H](CO)NC(=O)[C@H](CCCCN)NC(=O)[C@H](CCCNC(=N)N)NC(=O)[C@H](CCCNC(=N)N)NC(=O)[C@@H](N)CCCNC(=N)N)C(=O)N[C@@H](CCC(=O)O)C(=O)N[C@@H](Cc2ccc(O)cc2)C(=O)N[C@@H](Cc2c[nH]c3ccccc23)C(=O)N1 (H-RRRKSFCEYW; linker 7-C via X2)
IC50 [5]: 3.6 nM | IC50 [7]: 10300 nM | Activity (HCT-116 [13]): Not active; Compound Was Poorly Active Even At High Concentration | Activity (MCF7): inactive | inhibition [9]: 98% | inhibition [11]: 99%

CC(C)[C@@H](CNC(N)=O)NC(=O)NC[C@H](C)NC(=O)NC[C@@H]1CSCCCCCCSC[C@H](NC(=O)[C@H](Cc2ccccc2)NC(=O)[C@H](CO)NC(=O)[C@@H](N)[C@@H](C)O)C(=O)N[C@@H](CCC(=O)O)C(=O)N[C@@H](Cc2ccc(O)cc2)C(=O)N[C@@H](Cc2c[nH]c3ccccc23)C(=O)N1 (H-TSFCEYW; linker 4-C via X1)
Activity (HCT-116 [16]): inactive | IC50 [5]: 19.3 nM | IC50 [7]: 127000 nM | Activity (HCT-116 [13]): inactive | Activity (MCF7): inactive | inhibition [9]: 52% | inhibition [11]: 97%

CC(C)[C@@H](CNC(N)=O)NC(=O)NC[C@H](C)NC(=O)NC[C@@H]1CSCC(=O)NCCNC(=O)CSC[C@H](NC(=O)[C@H](Cc2ccccc2)NC(=O)[C@H](CO)NC(=O)[C@@H](N)[C@@H](C)O)C(=O)N[C@@H](CCC(=O)O)C(=O)N[C@@H](Cc2ccc(O)cc2)C(=O)N[C@@H](Cc2c[nH]c3ccccc23)C(=O)N1 (H-TSFCEYW; linker 4-C via X2)
Activity (HCT-116 [16]): inactive | IC50 [5]: 10.1 nM | IC50 [7]: 28000 nM | inhibition [9]: 91% | inhibition [11]: 99%

CC(C)[C@@H](CNC(N)=O)NC(=O)NC[C@H](C)NC(=O)NC[C@@H]1CSCCCCCCSC[C@H](NC(=O)[C@H](Cc2ccccc2)NC(=O)[C@@H](NC(=O)[C@H](CCCCN)NC(=O)CCC(=O)NCCOCCOCCCCCCCl)[C@@H](C)O)C(=O)N[C@@H](CCC(=O)O)C(=O)N[C@@H](Cc2ccc(O)cc2)C(=O)N[C@@H](Cc2c[nH]c3ccccc23)C(=O)N1 ({NH(CH2CH2O)2(CH2)6Cl-Suc}-KTFCEYW; linker 4-C via X1)
EC50 [17]: 510 nM

CC(C)[C@@H](CNC(N)=O)NC(=O)NC[C@H](C)NC(=O)NC[C@@H]1CSCCCCCCSC[C@H](NC(=O)[C@H](Cc2ccccc2)NC(=O)[C@H](CO)NC(=O)[C@H](CCCCN)NC(=O)[C@H](CCCNC(=N)N)NC(=O)[C@H](CCCNC(=N)N)NC(=O)[C@H](CCCNC(=N)N)NC(=O)CCC(=O)NCCOCCOCCCCCCCl)C(=O)N[C@@H](CCC(=O)O)C(=O)N[C@@H](Cc2ccc(O)cc2)C(=O)N[C@@H](Cc2c[nH]c3ccccc23)C(=O)N1 ({NH(CH2CH2O)2(CH2)6Cl-Suc}-RRRKSFCEYW; linker 7-C via X1)
EC50 [17]: 1900 nM

CC(C)[C@@H](CNC(N)=O)NC(=O)NC[C@H](C)NC(=O)NC[C@@H]1CSCC(=O)NCCNC(=O)CSC[C@H](NC(=O)[C@H](Cc2ccccc2)NC(=O)[C@H](CO)NC(=O)[C@H](CCCCN)NC(=O)[C@H](CCCNC(=N)N)NC(=O)[C@H](CCCNC(=N)N)NC(=O)[C@H](CCCNC(=N)N)NC(=O)CCC(=O)NCCOCCOCCCCCCCl)C(=O)N[C@@H](CCC(=O)O)C(=O)N[C@@H](Cc2ccc(O)cc2)C(=O)N[C@@H](Cc2c[nH]c3ccccc23)C(=O)N1 ({NH(CH2CH2O)2(CH2)6Cl-Suc}-RRRKSFCEYW; linker 7-C via X2)
EC50 [17]: 3300 nM

N[C@@H](Cc1c[nH]c2ccccc12)C(=O)O [TRYPTOPHAN]
EC50 [17]: 87 nM
